Consider three compounds from publication PMC12434670 (Journal of Medicinal Chemistry, 2025).

The test system of the assay is Virg09 virus clones with HA mutations. It is filed as cell-based, influenza A virus.
[1] abbreviates: read-out: Antiviral EC50 by MTS assay, mutant A81/82_1V.
The mark [2] stands for this setting: read-out: Antiviral EC50 by MTS assay, mutant D90_2G.
[3] abbreviates: read-out: Antiviral EC50 by MTS assay, mutant F118_1L.
Where [4] appears, read: read-out: Antiviral EC50 by MTS assay, mutant S54_2P.
Where [5] appears, read: read-out: Antiviral EC50 by MTS assay, mutant T301_1I.
Setting [6] is: read-out: EC50 against all virus clones selected under VF-57a or RL-007.

Like-named read-outs stand apart in the source and are kept apart here.

For the compound `O=C1c2c(O)c(=O)ccn2N([C@@H]2c3ccccc3SCc3c2ccc(F)c3F)[C@@H]2COCCN12` [BXA, baloxavir acid], the “Activity against all viruses tested (in words)” value is recorded as “equally active”. Also, under setting [1], the EC50 is 0.003 ± 0.0007 µM. In addition, under setting [2], the EC50 was 0.0017 ± 0.0002 µM. For the same compound, under setting [3], the EC50 turned out to be 0.0025 ± 0.0005 µM. In addition, the EC50 under setting [4] is 0.0017 ± 0.0008 µM. In addition, the EC50 under setting [5] came to 0.0019 ± 0.0001 µM.
With `Cc1cc(CNC(=O)c2cc(Cl)cc(C(F)(F)F)c2)c(C)s1` [Compound 23, 3-Chloro-N-[(2,5-dimethylthiophen-3-yl)methyl]-5-(trifluoromethyl)benzamide], the EC50 by setting is: under setting [1], > 40 µM; under setting [2], > 40 µM; under setting [3], > 40 µM; under setting [4], > 40 µM; under setting [5], > 40 µM; under setting [6], > 40 µM.
`CC(C)c1ccccc1NCCN1CCCCC1` [RL-007, reference compound]: the EC50 is > 40 µM under setting [1]; > 40 µM under setting [2]; > 40 µM under setting [3]; > 40 µM under setting [4]; > 40 µM under setting [5]; > 40 µM under setting [6].
